From ChEMBL document CHEMBL2074504, “Inhibition of P-glycoprotein-mediated drug transport: A unifying mechanism to explain the interaction between digoxin and quinidine [seecomments]” (Circulation, 1999)

What was measured:
[1] = target: ATP-dependent translocase ABCB1 (Homo sapiens, UniProt P08183); experiment: TP_TRANSPORTER: transepithelial transport (basal to apical) in Caco-2 cells; assay type: functional, cell-based
[2] = target: T1, ATP-dependent translocase ABCB1 (Mus musculus, UniProt P21447); experiment: TP_TRANSPORTER: increase in small intestine concentration in mdr1a(-/-) mouse; assay type: functional, organism-based; conditions: in vivo
[3] = target: T1, ATP-dependent translocase ABCB1; experiment: TP_TRANSPORTER: increase in spleen concentration in mdr1a(-/-) mouse; assay type: functional, organism-based; conditions: in vivo
[4] = target: T1, ATP-dependent translocase ABCB1; experiment: TP_TRANSPORTER: increase in lung concentration in mdr1a(-/-) mouse; assay type: functional, organism-based; conditions: in vivo
[5] = target: T1, ATP-dependent translocase ABCB1; experiment: TP_TRANSPORTER: increase in plasma concentration in mdr1a(-/-) mouse; assay type: functional, organism-based; conditions: in vivo
[6] = target: T1, ATP-dependent translocase ABCB1; experiment: TP_TRANSPORTER: increase in kidney concentration in mdr1a(-/-) mouse; assay type: functional, organism-based; conditions: in vivo
[7] = target: T1, ATP-dependent translocase ABCB1; experiment: TP_TRANSPORTER: increase in liver concentration in mdr1a(-/-) mouse; assay type: functional, organism-based; conditions: in vivo
[8] = target: T1, ATP-dependent translocase ABCB1; experiment: TP_TRANSPORTER: increase in brain concentration in mdr1a(-/-) mouse; assay type: functional, organism-based; conditions: in vivo

Measured: Activity

T1 sequence (P21447 whole entry): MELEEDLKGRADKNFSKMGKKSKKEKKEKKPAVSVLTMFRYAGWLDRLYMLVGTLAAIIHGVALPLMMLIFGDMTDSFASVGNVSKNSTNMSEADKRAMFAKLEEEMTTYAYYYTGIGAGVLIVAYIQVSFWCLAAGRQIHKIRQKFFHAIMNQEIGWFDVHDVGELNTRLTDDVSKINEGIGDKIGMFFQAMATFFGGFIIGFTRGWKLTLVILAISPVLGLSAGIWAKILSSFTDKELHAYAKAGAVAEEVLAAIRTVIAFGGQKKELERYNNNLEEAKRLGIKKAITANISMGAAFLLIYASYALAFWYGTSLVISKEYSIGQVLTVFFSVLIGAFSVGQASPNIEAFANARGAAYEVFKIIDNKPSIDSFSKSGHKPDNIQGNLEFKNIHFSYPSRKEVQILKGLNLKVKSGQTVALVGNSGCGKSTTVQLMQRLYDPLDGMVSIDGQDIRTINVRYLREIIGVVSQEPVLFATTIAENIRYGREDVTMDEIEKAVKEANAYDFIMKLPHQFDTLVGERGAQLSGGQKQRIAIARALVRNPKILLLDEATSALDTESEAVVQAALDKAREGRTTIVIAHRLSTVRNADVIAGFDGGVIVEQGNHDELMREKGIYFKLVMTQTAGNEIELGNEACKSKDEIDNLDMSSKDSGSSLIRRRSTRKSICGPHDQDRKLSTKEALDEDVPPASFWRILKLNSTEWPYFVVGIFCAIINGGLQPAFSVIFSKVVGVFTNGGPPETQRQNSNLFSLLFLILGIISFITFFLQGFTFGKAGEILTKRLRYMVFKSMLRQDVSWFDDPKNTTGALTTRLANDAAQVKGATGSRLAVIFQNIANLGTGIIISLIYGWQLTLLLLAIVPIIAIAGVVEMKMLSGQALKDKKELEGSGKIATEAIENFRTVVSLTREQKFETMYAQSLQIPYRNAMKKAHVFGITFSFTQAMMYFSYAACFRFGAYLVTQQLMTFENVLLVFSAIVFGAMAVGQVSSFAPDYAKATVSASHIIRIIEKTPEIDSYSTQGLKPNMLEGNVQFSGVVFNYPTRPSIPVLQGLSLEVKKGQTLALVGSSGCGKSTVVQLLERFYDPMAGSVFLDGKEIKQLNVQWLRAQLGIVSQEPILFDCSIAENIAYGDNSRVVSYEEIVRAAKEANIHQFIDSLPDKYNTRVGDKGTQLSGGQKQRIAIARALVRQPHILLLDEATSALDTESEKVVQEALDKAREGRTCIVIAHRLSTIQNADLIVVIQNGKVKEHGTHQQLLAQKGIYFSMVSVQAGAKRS
Chain of ATP-dependent translocase ABCB1 (Homo sapiens, UniProt P08183) (P08183 whole entry): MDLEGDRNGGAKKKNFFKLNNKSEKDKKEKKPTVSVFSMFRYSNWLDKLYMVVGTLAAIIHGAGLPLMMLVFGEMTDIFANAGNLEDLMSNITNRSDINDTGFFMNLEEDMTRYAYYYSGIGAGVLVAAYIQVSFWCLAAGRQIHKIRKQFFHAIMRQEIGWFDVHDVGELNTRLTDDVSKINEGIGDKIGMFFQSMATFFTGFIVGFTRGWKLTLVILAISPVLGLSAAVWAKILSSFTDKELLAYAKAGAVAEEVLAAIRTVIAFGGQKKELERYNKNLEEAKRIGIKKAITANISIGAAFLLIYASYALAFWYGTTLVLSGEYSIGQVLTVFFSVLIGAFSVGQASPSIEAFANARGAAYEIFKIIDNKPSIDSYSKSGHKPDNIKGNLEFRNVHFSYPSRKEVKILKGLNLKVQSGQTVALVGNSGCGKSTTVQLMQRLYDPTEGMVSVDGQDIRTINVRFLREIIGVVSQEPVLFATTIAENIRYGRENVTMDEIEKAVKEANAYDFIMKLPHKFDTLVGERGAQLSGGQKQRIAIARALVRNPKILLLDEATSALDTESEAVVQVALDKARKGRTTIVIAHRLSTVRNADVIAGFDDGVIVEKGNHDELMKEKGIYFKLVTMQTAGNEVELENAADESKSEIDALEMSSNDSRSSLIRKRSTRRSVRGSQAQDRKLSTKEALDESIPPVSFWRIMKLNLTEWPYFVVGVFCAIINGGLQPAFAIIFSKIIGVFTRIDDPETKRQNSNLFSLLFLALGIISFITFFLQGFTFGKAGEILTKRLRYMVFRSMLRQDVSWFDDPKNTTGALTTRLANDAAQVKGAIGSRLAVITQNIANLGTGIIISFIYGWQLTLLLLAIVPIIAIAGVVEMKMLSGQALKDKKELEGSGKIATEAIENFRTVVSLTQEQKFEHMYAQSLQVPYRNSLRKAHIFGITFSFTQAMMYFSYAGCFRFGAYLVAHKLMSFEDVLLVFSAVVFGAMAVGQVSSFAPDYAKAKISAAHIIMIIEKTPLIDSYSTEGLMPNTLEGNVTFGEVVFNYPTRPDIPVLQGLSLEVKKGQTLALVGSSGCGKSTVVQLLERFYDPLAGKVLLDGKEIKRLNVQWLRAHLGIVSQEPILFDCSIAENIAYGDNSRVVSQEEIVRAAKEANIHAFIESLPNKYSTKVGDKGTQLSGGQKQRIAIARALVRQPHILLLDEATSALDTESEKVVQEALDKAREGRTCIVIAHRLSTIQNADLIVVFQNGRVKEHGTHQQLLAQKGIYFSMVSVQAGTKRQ

C[C@H]1O[C@@H](O[C@H]2[C@@H](O)C[C@H](O[C@H]3[C@@H](O)C[C@H](O[C@H]4CC[C@@]5(C)[C@H](CC[C@@H]6[C@@H]5C[C@@H](O)[C@]5(C)[C@@H](C7=CC(=O)OC7)CC[C@]65O)C4)O[C@@H]3C)O[C@@H]2C)C[C@H](O)[C@@H]1O [DIGOXIN]
substrate [+]: [1]

C=C[C@H]1C[N@@]2CC[C@H]1C[C@@H]2[C@@H](O)c1ccnc2ccc(OC)cc12 [QUINIDINE]
substrate [+]: [2] | [3] | [4] | [5] | [6] | [7] | [8]
